Test results taken from patent publication EP1027349B1, “TETRAHYDROFURAN PHOSPHATE- AND HYDROXY ESTERS, AS PRODRUGS FOR THE CORRESPONDING ANTIFUNGAL AGENT” (SCHERING CORPORATION, priority 1997, dated 1999).

Experiments:
[1] = Antifungal activity in in vivo tests in mice; conditions: compared with itraconazole, fluconazole and azoles of USP 5,039,676 and WO 93/09114, result in words
Candida species (n=41) = assay: In vitro antifungal activity (MIC), NCCLS standard M27A; conditions: for MIC Range: Candida species (n=41); for MIC: Candida, read-out: G mean MICs
[2] = test system: Cryptococcus neoformans (n=9); assay: as above; conditions: for MIC Range: Cryptococcus neoformans (n=9); for MIC: Cryptococcus neoformans, read-out: G mean MICs
[3] = test system: Aspergillus species (n=30); assay: In vitro antifungal activity (MIC), Espinel-Ingroff's methodology; conditions: for MIC Range: Aspergillus species (n=30); for MIC: Aspergillus, read-out: G mean MICs
[4] = Pharmacokinetic (metabolism) studies in human tissues and serum; type: in vitro ADME; conditions: result in words
Aspergillus fumigatus = assay: Pulmonary Aspergillus fumigatus infection model in mice (Loebenberg et al.)
[5] = Plasma concentrations and PK parameters of the compound of formula IV in mice after intravenous administration of di-NMG salt prodrugs; type: in vivo, mouse; set-up: AUC: unit not given here; conditions: for Concentrations of the compound of formula IV in pooled mouse plasma, Pool 1 / Concentrations of the compound of formula IV in pooled mouse plasma, Pool 2: 2 mice/pool; for AUC: Table 3 summary: area under the curve from time zero to 24 hrs of the compound of formula IV in mouse plasma; for AUC / Bioavallability: intravenous, 20 mg/kg formula IV dose equivalent of the di-NMG salt in sterile water; for Bioavallability: of the compound of formula IV in mouse plasma
[6] = 0.017 hr (1 min) after intravenous administration of 20 mg/kg compound of formula IV dose equivalent of the di-NMG salt in sterile water
[7] = 0.017 hr (1 min) after intravenous administration of 20 mg/kg compound of formula IV dose equivalent of the di-NMG salt in sterile water, mean of 2 pools
[8] = 0.05 hr (3 min) after intravenous administration of 20 mg/kg compound of formula IV dose equivalent of the di-NMG salt in sterile water
[9] = 0.05 hr (3 min) after intravenous administration of 20 mg/kg compound of formula IV dose equivalent of the di-NMG salt in sterile water, mean of 2 pools
[10] = 0.083 hr (5 min) after intravenous administration of 20 mg/kg compound of formula IV dose equivalent of the di-NMG salt in sterile water
[11] = 0.083 hr (5 min) after intravenous administration of 20 mg/kg compound of formula IV dose equivalent of the di-NMG salt in sterile water, mean of 2 pools
[12] = 0.25 hr (15 min) after intravenous administration of 20 mg/kg compound of formula IV dose equivalent of the di-NMG salt in sterile water
[13] = 0.25 hr (15 min) after intravenous administration of 20 mg/kg compound of formula IV dose equivalent of the di-NMG salt in sterile water, mean of 2 pools
[14] = 0.5 hr (30 min) after intravenous administration of 20 mg/kg compound of formula IV dose equivalent of the di-NMG salt in sterile water
[15] = 0.5 hr (30 min) after intravenous administration of 20 mg/kg compound of formula IV dose equivalent of the di-NMG salt in sterile water, mean of pools
[16] = 1 hr. after intravenous administration of 20 mg/kg compound of formula IV dose equivalent of the di-NMG salt in sterile water
[17] = 1 hr. after intravenous administration of 20 mg/kg compound of formula IV dose equivalent of the di-NMG salt in sterile water, mean of 2 pools
[18] = 3 hr. after intravenous administration of 20 mg/kg compound of formula IV dose equivalent of the di-NMG salt in sterile water
[19] = 3 hr. after intravenous administration of 20 mg/kg compound of formula IV dose equivalent of the di-NMG salt in sterile water, mean of 2 pools
[20] = 6 hr. after intravenous administration of 20 mg/kg compound of formula IV dose equivalent of the di-NMG salt in sterile water
[21] = 6 hr. after intravenous administration of 20 mg/kg compound of formula IV dose equivalent of the di-NMG salt in sterile water, mean of 2 pools
[22] = 24 hr. after intravenous administration of 20 mg/kg compound of formula IV dose equivalent of the di-NMG salt in sterile water
[23] = 24 hr. after intravenous administration of 20 mg/kg compound of formula IV dose equivalent of the di-NMG salt in sterile water, mean of 2 pools

Structure (SMILES) | antifungal activity in in vivo tests [1] | MIC Range (Candida species (n=41)) [µg/mL] | MIC (Candida species (n=41)) [µg/mL] | MIC Range [2] [µg/mL] | MIC [2] [µg/mL] | MIC Range [3] [µg/mL] | MIC [3] [µg/mL] | Concentrations of the compound of formula IV in pooled mouse plasma, Pool 1 [5, 6] [ng/mL] | Concentrations of the compound of formula IV in pooled mouse plasma, Pool 2 [5, 6] [ng/mL] | Concentrations of the compound of formula IV in pooled mouse plasma, Mean [5, 7] [ng/mL] | Concentrations of the compound of formula IV in pooled mouse plasma, Pool 1 [5, 8] [ng/mL] | Concentrations of the compound of formula IV in pooled mouse plasma, Pool 2 [5, 8] [ng/mL] | Concentrations of the compound of formula IV in pooled mouse plasma, Mean [5, 9] [ng/mL] | Concentrations of the compound of formula IV in pooled mouse plasma, Pool 1 [5, 10] [ng/mL] | Concentrations of the compound of formula IV in pooled mouse plasma, Pool 2 [5, 10] [ng/mL] | Concentrations of the compound of formula IV in pooled mouse plasma, Mean [5, 11] [ng/mL] | Concentrations of the compound of formula IV in pooled mouse plasma, Pool 1 [5, 12] [ng/mL] | Concentrations of the compound of formula IV in pooled mouse plasma, Pool 2 [5, 12] [ng/mL] | Concentrations of the compound of formula IV in pooled mouse plasma, Mean [5, 13] [ng/mL] | Concentrations of the compound of formula IV in pooled mouse plasma, Pool 1 [5, 14] [ng/mL] | further results
CC[C@@H]([C@H](C)OC(=O)CCCO)n1ncn(-c2ccc(N3CCN(c4ccc(OC[C@@H]5CO[C@@](Cn6cncn6)(c6ccc(F)cc6F)C5)cc4)CC3)cc2)c1=O [Formula III, 2(S)-[4-{4-{4-{4-[[(R-Cis) -2-(2,4-difluorophenyl)-tetrahydro-2-(1H-1,2,4-triazol-1-ylmethyl)-4-furanyl]methoxy]phenyl]-1-piperazinyl]phenyl]-4,5-dihydro-5-oxo-1H-1,2,4-triazol-1-yl]-1-(S)-methylbutyl-4-hydroxy-butanoate] | unexpectedly better than that of existing antifungal agents | ≤ 0.0156 to 8 | 0.3 | 0.0156 to 0.5 | 0.09 | 0.0313 to 2 | 0.2 | – | – | – | – | – | – | – | – | – | – | – | – | – | –
CC[C@@H]([C@H](C)OC(=O)CCCOP(=O)(O)O)n1ncn(-c2ccc(N3CCN(c4ccc(OC[C@@H]5CO[C@@](Cn6cncn6)(c6ccc(F)cc6F)C5)cc4)CC3)cc2)c1=O [Formula II] | – | – | 7.5 | 0.125 to 32 | 1.9 | – | 5.9 | – | – | – | – | – | – | – | – | – | – | – | – | – | metabolism [4]: metabolized to the compound of formula IV via the metabolite represented by formula III; survival (Aspergillus fumigatus; doses of 10 mg/kg, mice with a pulmonary Aspergillus fumigatus infection): 70%
CC[C@@H]([C@H](C)O)n1ncn(-c2ccc(N3CCN(c4ccc(OC[C@@H]5CO[C@@](Cn6cncn6)(c6ccc(F)cc6F)C5)cc4)CC3)cc2)c1=O [Formula IV, reference compound] | unexpectedly better than that of existing antifungal agents | ≤0.0156 to 8 | 0.2 | ≤0.0150 to 0.5 | 0.04 | ≤0.0156 to 1 | 0.1 | – | – | – | – | – | – | – | – | – | – | – | – | – | –
CC[C@@H]([C@H](C)OC(=O)CCCCOP(=O)(O)O)n1ncn(-c2ccc(N3CCN(c4ccc(OC[C@@H]5CO[C@@](Cn6cncn6)(c6ccc(F)cc6F)C5)cc4)CC3)cc2)c1=O [Formula V.2NMG, reference compound] | – | – | – | – | – | – | – | 0 | 0 | 0 | 738 | 663 | 723 | 1040 | 1430 | 1240 | 1220 | 407 | 814 | 1990 | Concentrations of the compound of formula IV in pooled mouse plasma, Mean [5, 15]: 1990 ng/mL; Concentrations of the compound of formula IV in pooled mouse plasma, Pool 1 [5, 16]: 2730 ng/mL; Concentrations of the compound of formula IV in pooled mouse plasma, Pool 2 [5, 16]: 2630 ng/mL; Concentrations of the compound of formula IV in pooled mouse plasma, Mean [5, 17]: 2680 ng/mL; Concentrations of the compound of formula IV in pooled mouse plasma, Pool 1 [5, 18]: 923 ng/mL; Concentrations of the compound of formula IV in pooled mouse plasma, Pool 2 [5, 18]: 2510 ng/mL; Concentrations of the compound of formula IV in pooled mouse plasma, Mean [5, 19]: 1720 ng/mL; Concentrations of the compound of formula IV in pooled mouse plasma, Pool 1 [5, 20]: 2590 ng/mL; Concentrations of the compound of formula IV in pooled mouse plasma, Pool 2 [5, 20]: 1900 ng/mL; Concentrations of the compound of formula IV in pooled mouse plasma, Mean [5, 21]: 2250 ng/mL; Concentrations of the compound of formula IV in pooled mouse plasma, Pool 1 [5, 22]: 447 ng/mL; Concentrations of the compound of formula IV in pooled mouse plasma, Pool 2 [5, 22]: 515 ng/mL; Concentrations of the compound of formula IV in pooled mouse plasma, Mean [5, 23]: 481 ng/mL; AUC [5]: 36.7; Bioavallability [5]: 30%
OC(Cn1cncn1)(Cn1cncn1)c1ccc(F)cc1F [fluconazole, reference compound] | – | – | – | – | – | – | – | – | – | – | – | – | – | – | – | – | – | – | – | – | activity in Aspergillus pulmonary infection model (Aspergillus fumigatus; mice, result in words): inactive
CC[C@@H]([C@H](C)OC(=O)CCCOP(=O)(O)O)n1ncn(-c2ccc(N3CCN(c4ccc(OC[C@@H]5CO[C@@](Cn6cncn6)(c6ccc(F)cc6F)C5)cc4)CC3)cc2)c1=O [Formula II.2NMG] | – | – | – | – | – | – | – | 171 | 164 | 168 | 378 | 297 | 338 | 798 | 817 | 808 | 1570 | 2720 | 2150 | 3020 | Concentrations of the compound of formula IV in pooled mouse plasma, Pool 2 [5, 14]: 2340 ng/mL; Concentrations of the compound of formula IV in pooled mouse plasma, Mean [5, 15]: 2680 ng/mL; Concentrations of the compound of formula IV in pooled mouse plasma, Pool 1 [5, 16]: 4460 ng/mL; Concentrations of the compound of formula IV in pooled mouse plasma, Pool 2 [5, 16]: 3950 ng/mL; Concentrations of the compound of formula IV in pooled mouse plasma, Mean [5, 17]: 4210 ng/mL; Concentrations of the compound of formula IV in pooled mouse plasma, Pool 1 [5, 18]: 5160 ng/mL; Concentrations of the compound of formula IV in pooled mouse plasma, Pool 2 [5, 18]: 5630 ng/mL; Concentrations of the compound of formula IV in pooled mouse plasma, Mean [5, 19]: 5400 ng/mL; Concentrations of the compound of formula IV in pooled mouse plasma, Pool 1 [5, 20]: 5960 ng/mL; Concentrations of the compound of formula IV in pooled mouse plasma, Pool 2 [5, 20]: 3590 ng/mL; Concentrations of the compound of formula IV in pooled mouse plasma, Mean [5, 21]: 4780 ng/mL; Concentrations of the compound of formula IV in pooled mouse plasma, Pool 1 [5, 22]: 915 ng/mL; Concentrations of the compound of formula IV in pooled mouse plasma, Pool 2 [5, 22]: 992 ng/mL; Concentrations of the compound of formula IV in pooled mouse plasma, Mean [5, 23]: 954 ng/mL; AUC [5]: 79.1; Bioavallability [5]: 65%
